Data from patent US9879036B2, “Mitochondrial aldehyde dehydrogenase-2 binding compounds and methods of use thereof” (Aviv Therapeutics, Inc., priority 2014, dated 2018).
Entries after “also recorded” stand apart in the source; their conditions may differ. Values belong to the molecule of their own block, whether it stands above or below them.

Assays:
[1] = system: carrageenan inflammatory pain model in male C57BL/6 mice; test: Carrageenan inflammatory pain model, Von Frey paw withdrawal threshold; format: in vivo; conditions: for contralateral paw withdrawal threshold / ipsilateral paw withdrawal threshold compared to vehicle: 180 minutes after carrageenan; for carrageenan-induced mechanical hyperalgesia: ipsilateral paw
Description: Mice are acclimated to the colony room and maintained on a 12 hour/12 hour light/dark cycle. To induce plantar sensitivity to tactile stimuli, a single injection of carrageenan is administered to the plantar hindpaw of the mice and withdrawal from a mechanical stimulus is measured by applying Von Frey filaments of ascending bending force to the plantar surface of the hind paws.
A compound of formula (I) is dissolved and administered subcutaneous (sc) or orally (po) prior to carrageenan administration and after carrageenan injections. Data is analyzed by analysis of variance (ANOVA) followed by post-hoc comparisons with Fisher Tests when appropriate.
The analgesic effects of AC151 and Alda-1 were evaluated using the carrageenan inflammatory pain model in male C57BL/6 mice. The mice were administered AC151, Alda-1 and vehicle (saline) as a control.
Male C57BL/6J mice from Jackson Laboratories (Bar Harbor, Me.) were used in this study. Mice were received at 6-7 weeks of age. Upon receipt, mice were assigned unique identification numbers (tail marked) and were group housed in OPTImice cages. All animals were acclimated to the colony room for at least 1 week prior to testing. During the period of acclimation, animals were examined on a regular basis, handled, and weighed to assure adequate health and suitability. Animals were maintained on a 12 hour/12 hour light/dark cycle. The room temperature was maintained between 20° C. and 23° C. with a relative humidity maintained between 30% and 70%. Chow and water were provided ad libitum for the duration of the study. All testing was performed during the animal's light cycle phase.
To induce plantar sensitivity to tactile stimuli, a single injection of carrageenan was administered to the plantar hindpaw of the mice and three hours later withdrawal from a mechanical stimulus is measured by applying Von Frey filaments of ascending bending force (0.02 to 6 grams) to the plantar surface of the hind paws (ipsilateral and contralateral to injection). A positive response was defined as withdrawal from the Von Frey filament. Confirmation of threshold is tested by examining the filament above and below the withdrawal response. A significant decrease in withdrawal threshold is interpreted as mechanical hyperalgesia. Prior to drug or carrageenan treatment, baseline Von Frey measures were taken and used to balance animals across treatment groups.
Alda-1 (1, 2, and 5 mg/kg) was dissolved in 50% DMSO/50% PEG and administered subcutaneous (sc), 15 min prior to carrageenan administration and twice again 30 and 150 minutes after carrageenan injections at a dose volume of 5 ml/kg. AC151 (40 and 80 mg/kg) was dissolved in saline and administered orally (po), 30 min after carrageenan administration. For one group, AC151 (80 mg/kg) was administered 15 min prior to carrageenan injections. The dose volume for this compound was 10 ml/kg.
The initial injections of AC151 (80 mg/kg) and Alda-1 were made 15 min prior to carrageenan injections. Then, a single 3.5 μl injection of 3% carrageenan was administered to the right plantar hindpaw. Alda-1 was then administered twice, once 30 minutes after carrageenan and again 150 minutes post-carrageenan. In separate treatment groups AC151 (40 mg/kg and 80 mg/kg) as well as saline vehicle were administered 30 minutes after carrageenan injection. Von Frey measures were taken 180 minutes after carrageenan injection.
Data were analyzed by analysis of variance (ANOVA) followed by post-hoc comparisons with Fisher Tests when appropriate. An effect was considered significant if p<0.05. […].

ALDH2 = biological target: T1, ALDH2 (Homo sapiens, UniProt P05091); test: ALDH2 activity with 20 μM of the compound (Table 3); format: biochemical; conditions: 20 μM compound
T1 construct: His-tag (N); made in house; host or cells: E. coli BL21
T1 sequence (P05091 18-517): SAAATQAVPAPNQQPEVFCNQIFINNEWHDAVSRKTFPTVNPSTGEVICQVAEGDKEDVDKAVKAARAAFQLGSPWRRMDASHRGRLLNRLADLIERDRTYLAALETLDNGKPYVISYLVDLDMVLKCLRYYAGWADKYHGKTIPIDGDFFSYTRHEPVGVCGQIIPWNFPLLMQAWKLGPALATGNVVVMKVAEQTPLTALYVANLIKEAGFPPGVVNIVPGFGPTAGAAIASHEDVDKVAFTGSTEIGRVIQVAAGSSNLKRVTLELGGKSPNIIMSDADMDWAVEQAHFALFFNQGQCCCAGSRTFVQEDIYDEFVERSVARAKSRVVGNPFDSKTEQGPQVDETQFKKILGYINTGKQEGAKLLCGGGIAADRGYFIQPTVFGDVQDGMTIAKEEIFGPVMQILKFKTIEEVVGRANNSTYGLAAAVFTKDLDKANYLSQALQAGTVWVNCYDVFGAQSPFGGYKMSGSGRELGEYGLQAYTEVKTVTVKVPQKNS
How it was run: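 Compound was tested at 20 μM. ALDH2 oxidation of acetaldehyde with NAD+ cofactor was followed spectrophotometrically as NADH accumulation at 340 nm. Activity is expressed relative to the enzyme's baseline activity, taken as 100%.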

[2] = system: FANCA deficiency lymphocyte cell line (FANCA B-lymphocyte, GM13022); test: Proliferation of FANCA deficient lymphocytes under 4 HNE challenge (alamarBlue); format: cell-based
Description: FANCA deficiency lymphocyte cell line (Fanconi Anemia, Complementation Group A, FANCA B-lymphocyte, GM13022) was purchased from Coriell Cell Repositories (403 Haddon Ave, Camden, N.J. 08103).
Standard cell culture conditions were used in this experiment. The culture medium (CM) consisted of culture medium RPMI1640, 15% heat-inactivated FBS, 2 mM L-glutamine, 1% Pen/Strep. Cells were suspended in 10-20 ml CM in T25 tissue culture flask in an upright position and incubated in a 37° C., 5% CO2 incubator. Cells were counted daily and diluted with fresh CM to 3×10^5 cells/ml. Cells thawed and maintained in culture for 3-12 days were used in these studies.
Cell densities of FANCA lymphocytes were determined and cells were diluted in RPMI1640 medium containing 15% FBS, 2 mM L-glutamine, 1% Pen/Strep to desired cell density. 4000 cells in 50-75 μl were plated onto each well in total 48 wells in columns 3-10 and rows B-G. This plating arrangement provided 6-replicates per column for each experimental condition. Plate was then centrifuged at 500 rpm for 2 min to ensure better distribution of cells across the well. For background medium controls, equal volume (50-75 μl) of dilution medium were added to wells B2, C2, D2.
For minimizing cells/medium drying in sample wells, 150 μl of 1×DPBS was added to each well of the 45 wells surrounding the sample and control wells. Plate was then incubated in a 37° C. 5% CO2 incubator for at least 4 hours before addition of new reagent.
Compounds were diluted from 20 mM stocks in DMSO with RPMI1640 medium containing 15% FBS. RPMI1640 medium containing 15% FBS and corresponding volume of DMSO was used as controls.
4 HNE (64 mM in 100% ethanol) was diluted to desired concentrations with RPMI1640 base medium.
AlamarBlue was added to each well to final 9.1 or 10% of the total volume in each well. Plate was further incubated in the 37° C. 5% CO2 incubator. The alamarBlue assay is designed to measure quantitatively the proliferation of human and animal cell lines in culture versus incubation time period.
Plate was removed from the CO2 incubator at a pre-designated time and placed in the microplate reader. The fluorescence level in each well was monitored at Ex 554 nm and Em 590 nm. Afterwards the numeric numbers/units were used for data analyses.
Fluorescence units in all wells were acquired by the microplate reader at each time point. Data were then exported to scientist's computer equipped with SoftMax ProS software. The average of Background units (Blk, 3×) and the average of each sample set (6 replicates) were determined. For data collected at each time point (cell culture incubation period), the average of Blk units were subtracted from the average of each set of the Sample units. These “net fluorescence unit” data were then presented in a plot consisted of different culture incubation time periods (the x-axis) versus the corresponding net fluorescence units (y-axis).
The “net fluorescence units” of each sample set were also compared to those of the “control” at each time point. “Control fluorescence units” were considered to be 100% at all the time points. Each set of “net fluorescence units” were divided by the “Control fluorescent units” and multiplied by 100 to obtain corresponding percentages. These “relative percentage” data were then presented in a plot consisted of time points (the x-axis) versus the corresponding relative percentages to control of 100 (y-axis).
The inhibitory effect of 4 HNE on the proliferation of FANCA lymphocytes was examined. 4000 cells in 75 μl of RPMI1640 medium containing 15% FBS were plated onto each sample well in a 96-well poly D-lysine coated black/clear cell culture plate and the plate was incubated in a 37° C. 5% CO2 incubator for 7 hours.
Stock of 4 HNE at 64 mM was diluted with RPMI1640 medium to 10 μM, 20 μM, 30 μM, 40 μM, 60 μM, 80 μM, and 120 μM. […]

Structure (SMILES): COc1ccc(CNC(=O)c2cc(-c3ncccc3COC(=O)[C@H](N)C(C)C)ccc2OCC(C)C)cc1F [AC151]
contralateral paw withdrawal threshold [1]: No treatment effects | ipsilateral paw withdrawal threshold compared to vehicle ([1]; AC151 40 and 80 mg/kg po (all groups)): significantly increased paw withdrawal threshold | carrageenan-induced mechanical hyperalgesia [1]: attenuated carrageenan-induced mechanical hyperalgesia

Structure (SMILES): O=C(NCc1ccc2c(c1)OCO2)c1c(Cl)cccc1Cl [Alda-1, N-(1,3-Benzodioxol-5-ylmethyl)-2,6-dichlorobenzamide, reference compound]
contralateral paw withdrawal threshold [1]: No treatment effects | ipsilateral paw withdrawal threshold compared to vehicle ([1]; Alda-1 5 mg/kg sc, three doses): significantly increased paw withdrawal threshold | carrageenan-induced mechanical hyperalgesia [1]: attenuated carrageenan-induced mechanical hyperalgesia

activity at 20 µM (ALDH2): > 250%
Structure (SMILES): COc1ccc(CNC(=O)c2cc(-c3n[nH]cc3CO)ccc2OCC2CC2)cc1F [AC32]
relative cell proliferation versus control without AC compounds ([2]; 3.5 μM 4 HNE, 5 μM and 10 μM AC6, 10 μM AC32, 25 hours to 48 hours after 4 HNE treatment): higher levels of cell growth than “control”; also recorded: more efficient growth than control | FANCA-deficiency lymphocyte cell growth versus 4 HNE only or 2 μM ALDH2 activators ([2]; 10 μM compound, pretreatment 2 hours before 6 μM 4 HNE challenge): higher levels of cell growth | FANCA-deficiency lymphocyte cell growth versus 4 HNE only ([2]; pretreatment 2 hours before 3.5 μM 4 HNE challenge, 2 to 10 μM compound): higher levels of cell growth

Structure (SMILES): CCCCCC(O)/C=C/C=O (stereo not drawn) [4 HNE, trans-4-Hydroxynonenal, reference compound]
relative cell proliferation rate (control = 100%) ([2]; 3.5 μM 4 HNE only, 25 hours to 48 hours after 4 HNE treatment): 83% | level of FANCA cell proliferation ([2]; 4 HNE 2.5 to 30 μM, no ALDH2 activator): reduction of the level of cell proliferation in a concentration-dependent manner
